Reference: ChEMBL document CHEMBL1134080, “Indazolylamino quinazolines and pyridopyrimidines as inhibitors of the EGFr and C-erbB-2” (Bioorg Med Chem Lett, 2001)

Assays:
[1] = biological target: Receptor tyrosine-protein kinase erbB-2 (Rattus norvegicus, UniProt P06494); test: Inhibition of rat Receptor protein-tyrosine kinase erbB2
[2] = biological target: Epidermal growth factor receptor and ErbB2 (HER1 and HER2) (Homo sapiens) (UniProt P04626+P00533); test: Selectivity for EGF receptor and c-erbB-2; assay type: protein assay
[3] = biological target: Cyclin-dependent kinase 1 (Homo sapiens, UniProt P06493); test: Inhibition of Cyclin-dependent kinase 1
Chain of Cyclin-dependent kinase 1 (P06493 whole entry): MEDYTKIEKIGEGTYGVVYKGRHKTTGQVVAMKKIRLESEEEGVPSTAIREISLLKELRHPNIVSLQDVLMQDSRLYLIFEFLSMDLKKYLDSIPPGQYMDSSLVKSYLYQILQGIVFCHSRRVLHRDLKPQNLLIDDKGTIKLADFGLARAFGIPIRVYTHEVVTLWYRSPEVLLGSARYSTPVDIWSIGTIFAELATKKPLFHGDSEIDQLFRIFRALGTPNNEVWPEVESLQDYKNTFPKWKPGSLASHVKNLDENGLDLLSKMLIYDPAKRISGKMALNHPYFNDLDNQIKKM

[4] = biological target: RAF proto-oncogene serine/threonine-protein kinase (Homo sapiens, UniProt P04049); test: Inhibition of Raf kinase
Chain of RAF proto-oncogene serine/threonine-protein kinase (P04049 whole entry): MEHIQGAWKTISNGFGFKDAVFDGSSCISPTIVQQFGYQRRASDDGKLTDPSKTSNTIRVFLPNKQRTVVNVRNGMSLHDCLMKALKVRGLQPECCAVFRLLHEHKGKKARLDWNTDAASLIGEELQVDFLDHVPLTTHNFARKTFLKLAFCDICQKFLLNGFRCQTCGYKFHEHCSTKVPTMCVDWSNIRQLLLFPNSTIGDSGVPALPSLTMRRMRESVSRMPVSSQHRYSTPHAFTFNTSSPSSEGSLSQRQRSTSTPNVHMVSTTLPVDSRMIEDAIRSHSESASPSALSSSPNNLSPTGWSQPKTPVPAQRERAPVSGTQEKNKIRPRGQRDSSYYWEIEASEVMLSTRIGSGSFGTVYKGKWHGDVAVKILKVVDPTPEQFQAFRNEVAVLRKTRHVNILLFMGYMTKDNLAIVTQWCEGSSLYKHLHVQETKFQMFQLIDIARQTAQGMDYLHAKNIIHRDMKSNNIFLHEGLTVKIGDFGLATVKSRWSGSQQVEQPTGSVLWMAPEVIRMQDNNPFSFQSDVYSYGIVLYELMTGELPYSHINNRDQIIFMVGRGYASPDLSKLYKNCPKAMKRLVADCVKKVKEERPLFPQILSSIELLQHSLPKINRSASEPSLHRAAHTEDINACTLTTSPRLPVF

[5] = biological target: Cyclin-dependent kinase 2 (Homo sapiens, UniProt P24941); test: Inhibition of Cyclin-dependent kinase 2
[6] = system: HB4a; test: Inhibition of RAS overexpressing HB4a.R4.2 cell proliferation; assay type: functional, cell-based; details: Homo sapiens
[7] = Pharmacokinetic property (Plasma clearance) was measured in dog; assay type: ADME, organism-based, Canis lupus familiaris
[8] = biological target: Proto-oncogene tyrosine-protein kinase Src (Homo sapiens, UniProt P12931); test: Inhibition of Src kinase
Chain of Proto-oncogene tyrosine-protein kinase Src (P12931 2-536 limits assumed): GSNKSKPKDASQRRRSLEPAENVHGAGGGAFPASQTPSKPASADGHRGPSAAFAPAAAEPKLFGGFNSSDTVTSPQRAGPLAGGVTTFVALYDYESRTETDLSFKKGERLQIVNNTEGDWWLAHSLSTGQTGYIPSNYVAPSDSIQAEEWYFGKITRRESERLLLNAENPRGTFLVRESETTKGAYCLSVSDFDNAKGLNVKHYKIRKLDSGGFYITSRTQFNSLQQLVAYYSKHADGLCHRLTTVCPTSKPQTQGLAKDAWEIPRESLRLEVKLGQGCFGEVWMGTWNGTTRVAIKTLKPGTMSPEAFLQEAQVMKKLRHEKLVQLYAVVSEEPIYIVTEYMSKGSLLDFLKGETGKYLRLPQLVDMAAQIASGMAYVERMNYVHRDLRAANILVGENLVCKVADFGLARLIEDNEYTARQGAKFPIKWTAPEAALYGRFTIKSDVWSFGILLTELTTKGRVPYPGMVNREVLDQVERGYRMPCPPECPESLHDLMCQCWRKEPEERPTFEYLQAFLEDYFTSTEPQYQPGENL

[9] = Half-life was measured in mouse; assay type: ADME, organism-based; details: in vivo
[10] = Pharmacokinetic property (Plasma clearance) was measured in rat; assay type: ADME, organism-based
[11] = Pharmacokinetic property (Plasma clearance) was measured in mouse; assay type: ADME, organism-based
[12] = biological target: Dual specificity mitogen-activated protein kinase kinase; MEK1/2 (Homo sapiens, UniProt P36507+Q02750); test: Inhibition of MAPK kinase (MEK); assay type: protein assay
[13] = Bioavailability in dog; assay type: ADME, organism-based, Canis lupus familiaris; details: in vivo
[14] = Bioavailability was measured in rat; assay type: ADME, organism-based; details: in vivo
[15] = Half-life was measured in dog; assay type: ADME, organism-based, Canis lupus familiaris; details: in vivo
[16] = Half-life was measured in rat; assay type: ADME, organism-based; details: in vivo
[17] = system: MRC5; test: Inhibition of MRC5 cell proliferation; assay type: functional, cell-based; details: Homo sapiens
[18] = Bioavailability was measured in mouse; assay type: ADME, organism-based; details: in vivo

Chain of Receptor tyrosine-protein kinase erbB-2 (P06494 whole entry): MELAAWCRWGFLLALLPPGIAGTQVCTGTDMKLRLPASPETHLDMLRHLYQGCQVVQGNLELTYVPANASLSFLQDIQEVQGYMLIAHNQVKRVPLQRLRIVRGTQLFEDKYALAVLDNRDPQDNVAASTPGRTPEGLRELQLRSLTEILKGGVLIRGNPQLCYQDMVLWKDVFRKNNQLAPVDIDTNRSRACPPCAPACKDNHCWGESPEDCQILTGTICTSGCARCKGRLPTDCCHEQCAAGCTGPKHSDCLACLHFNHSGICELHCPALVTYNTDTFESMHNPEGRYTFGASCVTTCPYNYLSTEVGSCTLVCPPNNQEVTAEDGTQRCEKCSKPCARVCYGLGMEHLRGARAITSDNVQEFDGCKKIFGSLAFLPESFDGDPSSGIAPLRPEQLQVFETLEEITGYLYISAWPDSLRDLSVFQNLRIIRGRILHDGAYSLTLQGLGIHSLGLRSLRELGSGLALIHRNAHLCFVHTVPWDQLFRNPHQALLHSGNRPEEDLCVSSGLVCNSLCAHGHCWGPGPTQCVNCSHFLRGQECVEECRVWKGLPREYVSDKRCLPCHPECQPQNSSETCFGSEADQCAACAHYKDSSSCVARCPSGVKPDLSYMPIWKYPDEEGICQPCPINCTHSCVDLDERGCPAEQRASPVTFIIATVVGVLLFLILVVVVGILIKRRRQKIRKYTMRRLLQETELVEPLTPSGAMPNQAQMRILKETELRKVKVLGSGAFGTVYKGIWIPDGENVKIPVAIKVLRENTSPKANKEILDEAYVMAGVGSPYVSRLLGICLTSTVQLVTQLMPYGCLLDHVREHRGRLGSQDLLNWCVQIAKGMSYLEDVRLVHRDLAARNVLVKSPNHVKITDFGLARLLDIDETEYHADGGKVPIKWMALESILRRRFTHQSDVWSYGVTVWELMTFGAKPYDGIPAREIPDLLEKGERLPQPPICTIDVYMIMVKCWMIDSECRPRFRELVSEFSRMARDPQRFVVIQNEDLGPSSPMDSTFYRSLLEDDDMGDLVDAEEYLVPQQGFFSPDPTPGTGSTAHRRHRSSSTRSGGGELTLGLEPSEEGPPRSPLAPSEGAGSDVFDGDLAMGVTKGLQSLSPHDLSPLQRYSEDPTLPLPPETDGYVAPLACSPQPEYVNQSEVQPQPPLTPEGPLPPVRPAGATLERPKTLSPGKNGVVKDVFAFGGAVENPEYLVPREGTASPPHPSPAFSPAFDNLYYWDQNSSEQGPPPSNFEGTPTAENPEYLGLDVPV

| Compound | IC50 [1] [nM] | Selectivity [2] | also measured |
| --- | --- | --- | --- |
| c1ccc(Cn2ccc3cc(Nc4ncnc5ccccc45)ccc32)cc1 | 90 | – | – |
| Nc1cc2c(Nc3ccc4c(ccn4Cc4ccccc4)c3)ncnc2cn1 | 26 | – | – |
| COc1cc2ncnc(Nc3ccc4c(cnn4Cc4ccccc4)c3)c2cc1OC | 1 | > 5.6 | – |
| CN(C)c1cc2c(Nc3ccc4c(cnn4Cc4ccccc4)c3)ncnc2cn1 [GW282974X] | 18 | – | IC50 [3]: > 8000 nM; IC50 [4]: 49000 nM; IC50 [5]: > 8000 nM; IC50 [6]: 30000 nM; clearance [7]: 34 mL/min/kg; IC50 [8]: > 50000 nM; half-life [9]: 20 min; clearance [10]: 19 mL/min/kg; clearance [11]: > 27 mL/min/kg; IC50 [12]: 9700 nM; bioavailability [13]: 82%; bioavailability [14]: 24%; half-life [15]: 44 min; half-life [16]: 18 min; IC50 [17]: > 50000 nM; bioavailability [18]: > 23% |
| Nc1cc2c(Nc3ccc4[nH]c(Cc5ccccc5)nc4c3)ncnc2cn1 | 49 | 18.5 | – |
| c1ccc(Cc2nc3ccc(Nc4ncnc5ccccc45)cc3[nH]2)cc1 | 560 | 36 | – |
| COc1cc2ncnc(Nc3ccc4nn(Cc5ccccc5)cc4c3)c2cc1OC | 290 | 8.9 | – |
| COc1cc2ncnc(Nc3ccc4c(ccn4Cc4ccccc4)c3)c2cc1OC | 49 | 12.5 | – |

Second part, led by results:

| IC50 [1] [nM] | Selectivity [2] | Compound | also measured |
| --- | --- | --- | --- |
| 6600 | 39 | c1ccc(Cn2cnc3cc(Nc4ncnc5ccccc45)ccc32)cc1 | – |
| 10 | – | c1ccc(Cn2ncc3cc(Nc4ncnc5ccccc45)ccc32)cc1 | – |
| 27 | > 5.6 | Nc1cc2c(Nc3ccc4c(cnn4Cc4ccccc4)c3)ncnc2cn1 | – |
| 4400 | 27 | c1ccc(Cn2cnc3ccc(Nc4ncnc5ccccc45)cc32)cc1 | – |
| 10 | 19 | COc1cc2ncnc(Nc3ccc4nc(Cc5ccccc5)[nH]c4c3)c2cc1OC | – |
